Where “and” joins values, the source holds several entries; their conditions need not be identical. Equal values may be shown once. Read-outs that look alike come from different tables or passages of the source.
What was measured:
[1] = Extraction of mined oil sands with solvents (bitumen recovery);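 as to Recovered Bitumen: Bitumen mass includes 3 to 7 wt% residual solvent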
Method: The quality of dimethyl sulfide as an oil recovery agent based on the miscibility of dimethyl sulfide with a crude oil relative to other compounds was evaluated. […] Each oil sands sample was weighed and placed in a cellulose extraction thimble that was placed on a porous polyethylene support disk in a jacketed glass cylinder with a drip rate control valve. Each oil sands sample was then extracted with a selected solvent at a selected temperature (10° C. or 30° C.) in a cyclic contact and drain experiment, where the contact time ranged from 15 to 60 minutes. Fresh contacting solvent was applied and the cyclic extraction repeated until the fluid drained from the apparatus became pale brown in color.
The extracted fluids were stripped of solvent using a rotary evaporator and thereafter vacuum dried to remove residual solvent. […] The residual solids and extraction thimble were air dried, weighed, and then vacuum dried. […] Collectively, the weight of the solid or sample and thimble recovered after extraction plus the quantity of bitumen recovered after extraction divided by the weight of the initial oil sands sample plus the thimble provide the mass closure for the extractions.

[2] = SARA analysis of extracted bitumen samples; settings: bitumen extracted at 30° C.
Method: The bitumen samples extracted at 30° C. from each oil sands sample were evaluated by SARA analysis to determine the saturates, aromatics, resins, and asphaltenes composition of the bitumen samples extracted by each solvent.

[3] = extraction at 10 C., not corrected for residual solvent
[4] = extraction at 30 C., not corrected for residual solvent

Row | Structure (SMILES) | Weight Change ([1]; extraction at 10 C.) | Recovered Bitumen [1, 3] | Weight Change ([1]; extraction at 30 C.) | Recovered Bitumen [1, 4] | Recovered Bitumen [1] | Weight Change [1] | extraction of / miscibility with asphaltenes [2]
1 | S=C=S [Carbon Disulfide, carbon disulfide] | 16.8 g | 16.62 g | 16.4 g | 16.43 g | – | – | –
2 | ClC(Cl)Cl [Chloroform, chloroform] | – | – | – | – | 17.85 g and 18.62 g | 18.7 g and 19.4 g | –
3 | ClCCl [Dichloromethane, dichloromethane] | 18.9 g | 17.66 g | 17.7 g | 16.30 g | – | – | –
4 | CCOC(C)=O [Ethyl Acetate, ethyl acetate] | 11.2 g | 10.32 g | 17.7 g | 11.46 g | – | – | much less effective
5 | C1CCOC1 [Tetrahydrofuran, tetrahydrofuran] | 17.7 g | 16.72 g | 18.0 g | 17.67 g | – | – | –
6 | Cc1ccccc1C [o-Xylene, o-xylene] | 17.3 g | 17.36 g | 19.5 g | 17.37 g | – | – | –

From patent publication US20140000883A1, “PETROLEUM RECOVERY PROCESS AND SYSTEM” (Shell Oil Company, priority 2012, published 2014)
